Assay results published in PubChem BioAssay AID179 (DTP/NCI, 2004).
Where “and” joins values, the source holds several entries; their conditions need not be identical. Equal entries are not always repeated. Calls of active or inactive are those of the source.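 How the source made its calls: active means compounds giving half or more protection of infected cells from virus-caused growth loss, again on retest; inactive means the rest.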

Tested on: CEM cells HIV-1 protection, formazan growth assay
Assay: NCI AIDS Antiviral Assay
Conditions: for IC50: measured here: growth of uninfected CEM cells
Procedure, shortened: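 Human CEM cells, uninfected and HIV-1-infected, received five drug concentrations, and growth was read by soluble formazan assay. Compounds giving at least 50% protection were retested; reproducible 100% protection defined confirmed active.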

| Structure (SMILES) | EC50 [µM] | IC50 | outcome |
| --- | --- | --- | --- |
| COc1ccc(/C=C2/CSCC3=C2NC(=S)NC3c2ccc(OC)c(OC)c2OC)c(OC)c1OC (configuration not stated) | > 200 | 8.51 µM |  |
| Fc1ccc(/C=C2\COCC3=C2NC(=S)NC3c2ccc(F)cc2)cc1 (configuration not stated) |  |  | inactive |
| Cn1cc(C(=O)c2ccccc2)c2ccccc2c1=O |  |  | inactive |
| CC(=O)SCC1OC(n2cc(C)c(=O)[nH]c2=O)C/C1=N\O (configuration not stated) | > 200 | > 200 µM |  |
| CCC(C)C(=O)O[C@H]1C(=O)O[C@@H]2C[C@H]3C(C)=CC(=O)[C@@H](O)[C@]3(C)[C@H]3[C@@H](O)[C@H](O)[C@@]4(C)OC[C@]32[C@@H]14 (some centres not stated) | > 5.25 | 0.00891 µM |  |
| Clc1c2ccccc2nc2c1[nH]c1ccccc12 | > 200 | 11.2 µM |  |
| O=S(=O)(Nc1cccc(F)c1)c1ccc(F)cc1 |  |  | inactive |
| Cc1cc(C)nc(NS(=O)(=O)c2ccc(NC(=O)c3cccn4c(=O)c5ccccc5nc34)cc2)n1 |  |  | inactive |
| COCCN(C(=O)c1ccccc1)C1CCC2(SCCS2)c2[nH]c3ccccc3c21 (configuration not stated) | > 200 | 24 µM |  |
| CCCCSc1ccc2n(C)c(-c3ccc(/C=N\NC(=O)c4ccc(C(=O)N/N=C\c5ccc(-c6c[n+]7cc(SCCCC)ccc7n6C)cc5)cc4)cc3)c[n+]2c1 | 3.24 | 6.31 µM |  |
| COc1ccc(N/N=C/C2=CC(C)(C)C(C#N)(C#N)C(O)=C2C#N)cc1 | > 200 | 28.2 µM |  |
| C=CCOC(=O)N(C)CC(OC(=O)C(C)(C)C)C1(c2ccc3c(c2)OCO3)C=CC(=O)C=C1 (configuration not stated) |  |  | inactive |
| c1cnc2c3cnc4sccc4c3nn2c1 | > 74.1 | > 74.1 µM |  |
| CC(=O)OC1COC(n2c(-c3ccc(Cl)cc3)cc(-c3ccccc3)c(C#N)c2=S)C(OC(C)=O)C1OC(C)=O (configuration not stated) | > 200 | > 200 µM |  |
| C=C[C@@H](OCOCC[Si](C)(C)C)[C@@H](CC)OC(CCCOC(=O)C(C)(C)C)OC (some centres not stated) | > 200 | > 200 µM |  |
| Oc1ccc2c(c1)CCc1c-2n(CCN2CCOCC2)c2ccc(O)cc12 | > 200 | 14.8 µM |  |
| O=c1c2ccccc2nc(N/N=C/c2ccc(Cl)cc2)n1-c1ccccc1 | > 200 | > 200 µM |  |
| O=C(O)CN(c1ccc(Cl)cc1)S(=O)(=O)c1ccccc1 |  |  | inactive |
| Cc1cn(CC2OC(CO)C(CO)O2)c(=O)[nH]c1=O (configuration not stated) | > 457 | > 457 µM |  |
| CN1CC[C@]2(C)c3cc(O)ccc3CC3CCCC1C32C (some centres not stated) |  |  | inactive |
| O=c1c2nc(-c3ccccc3)oc2n(-c2ccccc2)c(=O)n1-c1ccccc1 | > 200 | 117 µM |  |
| CC(=O)O[C@H]1CCC2[C@@H]3CC[C@]4(C)CC(=O)C=C[C@]4(C)C3CC[C@@]21C (some centres not stated) |  |  | inactive |

| Structure (SMILES) | EC50 [µM] | IC50 | outcome |
| --- | --- | --- | --- |
| N#C/C(=C\c1ccc(-c2ccccc2)cc1)c1ccccc1 | > 200 | 170 µM |  |
| COc1ccc2nc(CC(=N)c3ccc(N(C)C)cc3)ccc2c1 | > 200 | 23.4 µM |  |
| O=C1C(=Nc2ccccc2)Oc2cc(O)ccc21 | > 200 | 17.8 µM |  |
| N#Cc1c(C#N)c(-c2ccccc2)n(/N=C\c2ccccc2)c1N | > 200 | 14.5 µM |  |
| CN1c2ccccc2[C@@]23CCN4CC=CC5(CCC12CC5)C43 (some centres not stated) | > 178 | 7.41 µM |  |
| N#CCC(=O)N1CCCOCCC1 | > 1380 | > 1380 µM |  |
| COC(=O)[C@@H]1O[C@]12C(CO[Si](C)(C)C(C)(C)C)OC(n1ccc(=O)[nH]c1=O)C2O[Si](C)(C)C(C)(C)C (some centres not stated) | > 200 | 9.77 µM |  |
| COC(=O)C1CCCCCCCCCCC12SCCCS2 (configuration not stated) | > 200 | > 200 µM |  |
| COCCOCCOCCOCCOCCOCCOCCOCCOCCOCCOCCOCCOCCOCCOCCOCCOCC(=O)N(CCn1ccc(N)nc1=O)CCn1cnc2nc(N)[nH]c(=O)c21 | > 117 | > 117 µM |  |
| S=c1sc(-c2ccccc2)c[se]1 | > 50.1 | 29.5 µM |  |
| O=C1C=CC(=O)c2c1ccc1c3ccccc3n(CCCCCCCCCCCCn3c4ccccc4c4ccc5c(c43)C(=O)C=CC5=O)c21 | > 100 | 72.4 µM |  |
| O=c1c2c3c(sc2nc2n1N=C(c1ccc(Br)cc1)CS2)CCCC3 | > 200 | > 200 µM |  |
| C=CC1(c2ccc(-c3ccccc3)cc2)OCCO1 | > 200 | 81.3 µM |  |
| CCC(/C(=N/NC(=O)C[N+](C)(C)C)c1ccccc1)C1OC(=O)c2ccccc21 (configuration not stated) | > 575 | > 575 µM |  |
| N#CC(NNC(=O)Cc1ccccc1)c1ccc(O)cc1 (configuration not stated) | > 891 | 245 µM |  |
| COc1ccc(NC2=NCCO2)c2c1CCCC2 | > 200 | 77.6 µM |  |
| CC(=O)OCC(OC(C)=O)C(OC(C)=O)C(OC(C)=O)C(=O)CNn1c(-c2ccc(C)cc2)nc2ccccc2c1=O (configuration not stated) |  |  | inactive |
| O=c1[nH]nc(Nc2ccc(Cl)cc2)c2nnn(C3CCCCC3)c12 | > 200 | > 200 µM |  |
| CCCCCCCCCC=C(c1cc(Br)c(O)c(C(=O)O)c1)c1cc(Br)c(O)c(C(=O)O)c1 | 141 | 191 µM |  |
| CC(=O)OCc1cc(OC(C)=O)c2cc3c(OC(C)=O)cccc3c(OC(C)=O)c2c1 | > 200 | 28.2 µM |  |
| O=C(Nc1nc2c(ncn2C2OC(CO)C(O)C2O)c(=O)[nH]1)c1ccccc1 (configuration not stated) | > 646 | 251 µM |  |
| c1ccc(N=C(N2CCOCC2)N(CCN2CCOCC2)c2ccccc2)cc1 | > 200 | 182 µM |  |

| Structure (SMILES) | EC50 [µM] | IC50 | outcome |
| --- | --- | --- | --- |
| CC12SC3(C)SC(C)(S1)SC(C)(S2)S3 | > 44.7 | 33.1 µM |  |
| Cc1cccc(/C=N/NC(=S)NC(C)(C)C)n1 | > 200 | 18.2 µM |  |
| O=[N+]([O-])c1nccn1CC(O)CF (configuration not stated) | > 468 | > 468 µM |  |
| CSC(SC)=C(C#N)C(N)=S | > 200 | 123 µM |  |
| Cc1cc(N(CCC#N)CCC#N)ccc1/C=C\C(=O)Nc1ccccc1 | > 692 | > 692 µM |  |
| Cc1cc2c(cc1C)C(=O)/C(=N/Nc1ccc(F)cc1)CCO2 | > 200 | 178 µM |  |
| O=S1(=O)c2ccccc2NC(=S)CC1c1ccccc1 (configuration not stated) | > 200 | 129 µM |  |
| COc1cc(-c2nc(N)c(C#N)c3c2CCS(=O)(=O)c2ccc(C)cc2-3)cc(OC)c1OC | > 200 | > 200 µM |  |
| CC[C@](O)(C(=O)O)c1cc2n(c(=O)c1CO)Cc1cc3ccccc3nc1-2 | > 0.1 | 0.012 µM |  |
| COC(=O)C(/C(=N/N)C(=O)Nc1cc(Cl)c(Cl)cc1Cl)c1nc2ccc(Cl)cc2[nH]c1=O (configuration not stated) | > 50.1 | > 50.1 µM |  |
| Cc1cc(NC2=CC(=O)C(=O)c3ccccc32)no1 | > 200 | 5.89 µM |  |
| COc1cccc(/C=C2\SC(=S)N(/C=C3\C(=O)Oc4ccccc4C3=O)C2=O)c1O | > 200 | 70.8 µM |  |
| O=C1C=Cc2ncccc2C1=O | > 1580 | 5.5 µM |  |
| COC1c2ccccc2CC(c2ccccc2)=NN1C(C)=O (configuration not stated) | > 89.1 | 51.3 µM |  |
| CC(/C=N/N=C(N)N)=N\N=C(N)N | > 977 | 2.75 µM and 0.513 µM |  |
| O=C(c1nc2cc([N+](=O)[O-])ccc2[nH]c1=O)C(O)c1ccco1 (configuration not stated) | > 200 | 61.7 µM |  |
| NNC(=S)NN/C=C(\C=Nc1ccccc1)[N+](=O)[O-] | > 178 | 155 µM |  |
| COc1cc(C(CC(C)=O)c2cc3c(cc2OC(C)=O)OCO3)cc(OC)c1OC (configuration not stated) (tested in a mixture with another compound) | > 105 | 0.135 µM |  |
| COC(=O)c1ccccc1C1CN=NC12Cc1c(ccc(C)c1C)C2=O (configuration not stated) | > 151 | > 151 µM |  |
| Cc1ccc(-c2cc(=O)c3cc(C)c(C)c(C(=O)O)c3o2)cc1[N+](=O)[O-] |  |  | inactive |
| CCOC(=O)c1cn(-c2ccc([N+](=O)[O-])cc2)c(=S)n2c1nc1ccccc12 | > 200 | 9.33 µM |  |
| CN1C(=O)C(N=Nc2ccc([N+](=O)[O-])cc2)SC1=S (configuration not stated) | > 100 | 10.7 µM and > 12.6 µM |  |

| Structure (SMILES) | EC50 [µM] | IC50 | outcome |
| --- | --- | --- | --- |
| c1ccc2c3[nH]c(c2c1)=Nc1ccc(cc1)-c1nc2cc(ccc2o1)N=c1[nH]c(c2ccccc12)=Nc1ccc2nc(oc2c1)-c1ccc(cc1)N=3 | > 200 | 40.7 µM |  |
| O=C1CCC(=O)c2c1c(O)c1ccncc1c2O |  |  | inactive |
| O=C1NC(Cc2ccccc2)C(=O)N2CCCC12 (configuration not stated) | > 1020 | > 1020 µM |  |
| Cc1cc(C)[s+]s1 | > 200 | 112 µM and 182 µM |  |
| Cc1ccc(SC(=O)N2C(=S)NC(=NC3CCCCC3)C23CCCCC3)cc1 | > 200 | 32.4 µM |  |
| Cc1cc(Cl)cc2c1NC(=O)C2(O)C(C(=O)c1ccccc1)c1ccccc1 (configuration not stated) | > 91.2 | > 91.2 µM |  |
| O=C1Cc2c([nH]c3c(Br)cccc23)-c2ccccc2N1 | > 200 | 29.5 µM |  |
| COc1ccc(OC)c2c(C(C)=O)cccc12 | > 200 | 97.7 µM |  |
| [N-]=[N+]=Nc1c([N+](=O)[O-])c(Cl)nc2ccccc12 | > 20 | 10 µM |  |
| C1SCSCS1 | > 200 | > 200 µM |  |
| O=[N+]([O-])c1ccc(-c2noc(-c3ccc(Cl)cc3)c2C2=NCCN2)cc1 | > 14.1 | > 14.1 µM |  |
| CC(C)(C)OC(=O)NCCC1SC2C=CC1C2 (configuration not stated) | > 200 | 107 µM |  |
| CCOC(=O)/C(=C\c1cccc(Br)c1)P(=O)(OCC)OCC | > 91.2 | 6.03 µM |  |
| COc1cc(Br)c2nsnc2c1 | > 29.5 | > 29.5 µM |  |
| Cc1cc(N=Nc2c(C)ccc3ncccc23)ccc1N | > 200 | 0.603 µM |  |
| Nc1nc(N)c2nc(-c3ccccc3)c(N)nc2n1 |  |  | inactive |
| O=C1NC(=O)C2(CC2)C(=O)N1 | > 200 | 13.2 µM |  |
| Clc1nnc(-c2ccccc2)s1 | > 200 | 87.1 µM |  |
| [O-]c1c2cc(-[n+]3c(-c4ccccc4)cc(-c4ccccc4)cc3-c3ccccc3)cc1CO[C@@H](c1ccccc1)[C@H](c1ccccc1)OCc1cccc(n1)CO[C@@H](c1ccccc1)[C@H](c1ccccc1)OC2 | > 1 | 0.0794 µM |  |
| CC(=O)Oc1c(C)cc2c(c1C)C(C)CN2C(C)=O (configuration not stated) | > 200 | > 200 µM |  |
| N=C(N)c1ccc2oc3ccc(C(=N)N)cc3c(=O)c2c1 |  |  | inactive |
| C[C@@H]1C=C[C@@H]2COC(=O)C2=C[C@@H]1c1ccccc1 |  |  | inactive |
